Reference: patent publication US20240108629A1, “AZAQUINAZOLINE DERIVATIVES FOR USE IN TREATING OR PREVENTING DIROFILARIA INFECTION IN A MAMMAL” (Liverpool School of Tropical Medicine, priority 2021, published 2024)

What was measured:
[1] = tested on: D. immitis L3-L4 larval Wolbachia in NSG mice; experiment: In vivo D. immitis larvae mouse assay (Example 3B); details: for n larvae depleted ≥50% (number/total) / n larvae depleted ≥50% (percentage of larvae): oral 200 mpk bid x 1; for D. immitis L4 Efficacy (median % reduction Wolbachia): oral 200 mpk bid x 1 (single day dosing), larvae retrieved 2 weeks after infection
[2] = tested on: D. immitis L3-L4 larval Wolbachia in NSG mice; experiment: In vivo D. immitis larvae mouse assay (Example 3A); details: for D. immitis L4 Efficacy (median % reduction Wolbachia): larvae retrieved 2 weeks after infection
[3] = tested on: D. immitis mf Wolbachia; experiment: In vitro D. immitis microfilariae assay (Wolbachia wsp copy number by qPCR); format: cell-based; details: six-day continuous exposure in vitro
[4] = tested on: D. immitis L4 Wolbachia; experiment: In vitro D. immitis L4 larvae assay (Wolbachia wsp copy number by qPCR); format: cell-based; details: for D. immitis L4 Efficacy (median % reduction Wolbachia): six-day continuous exposure in vitro

FC(F)(F)OC1CCN(c2nc(NCc3cccnc3C(F)(F)F)c3cccnc3n2)CC1 [Compound D, 2-(4-(trifluoromethoxy)piperidin-1-yl)-N-((2-(trifluoromethyl)pyridin-3-yl)methyl)pyrido[2,3-d]pyrimidin-4-amine]
n larvae depleted ≥50% (number/total) [1]: 8/12 | n larvae depleted ≥50% (percentage of larvae) [1]: (67%) | D. immitis L4 Efficacy (median % reduction Wolbachia) [1]: 53.6%

C[C@H]1COCCN1c1nc(NCc2cccnc2C(F)(F)F)c2cccnc2n1 [Compound A, (S)-2-(3-methylmorpholino)-N-((2-(trifluoromethyl)pyridin-3-yl)methyl)pyrido[2,3-d]pyrimidin-4-amine]
n larvae depleted ≥80% (number/total) ([2]; oral 200 mpk bid x 2): 10/11 | n larvae depleted ≥80% (percentage of larvae) ([2]; oral 200 mpk bid x 2): (90.9%) | D. immitis L4 Efficacy (median % reduction Wolbachia) ([2]; oral 200 mpk bid x 2 (days 1-2), 200 mg/kg): 89.7% | n larvae depleted ≥50% (number/total) [1]: 4/5 | n larvae depleted ≥50% (percentage of larvae) [1]: (80%) | D. immitis L4 Efficacy (median % reduction Wolbachia) ([1]; 200 mg/kg): 52.1% | D. immitis mf Efficacy (median % reduction Wolbachia) ([3]; 50 nM): 64.1% | D. immitis mf Efficacy (median % reduction Wolbachia) ([3]; 200 nM): 88.8% | D. immitis mf Efficacy (median % reduction Wolbachia) ([3]; 5000 nM): 96.0%

FC1(F)CCN(c2nc(NCc3ccccc3C(F)(F)F)c3cccnc3n2)CC1 [Compound C, 2-(4,4-difluoropiperidin-1-yl)-N-(2-(trifluoromethyl)benzyl)pyrido[2,3-d]pyrimidin-4-amine]
n larvae depleted ≥50% (number/total) [1]: 2/3 | n larvae depleted ≥50% (percentage of larvae) [1]: (67%) | D. immitis L4 Efficacy (median % reduction Wolbachia) [1]: 61.7%

CC1(C)CCN(c2nc(NCc3cccnc3C(F)(F)F)c3cccnc3n2)CC1 [Compound B, 2-(4,4-dimethylpiperidin-1-yl)-N-((2-(trifluoromethyl)pyridin-3-yl)methyl)pyrido[2,3-d]pyrimidin-4-amine]
D. immitis L4 Efficacy (median % reduction Wolbachia) ([4]; 1 nM): 45.4% | D. immitis L4 Efficacy (median % reduction Wolbachia) ([4]; 10 nM): 50.7% | D. immitis L4 Efficacy (median % reduction Wolbachia) ([4]; 50 nM): 57.4% | Wolbachia depletion in D. immitis L4 ([4]; doses between 50-10 nM, in vitro): > 50% | D. immitis mf Efficacy (median % reduction Wolbachia) ([3]; 0.5 nM): 63.9% | D. immitis mf Efficacy (median % reduction Wolbachia) ([3]; 50 nM): 53.6%

C[C@H]1c2cccc(O)c2C(=O)C2=C(O)[C@]3(O)C(=O)C(C(N)=O)=C(O)[C@@H](N(C)C)[C@@H]3[C@@H](O)[C@@H]21 [Doxycycline, doxycycline, reference compound]
n larvae depleted ≥80% (number/total) ([2]; oral 50 mpk qd x 7): 4/9 | n larvae depleted ≥80% (percentage of larvae) ([2]; oral 50 mpk qd x 7): (44.4%) | D. immitis L4 Efficacy (median % reduction Wolbachia) ([2]; oral 50 mpk qd x 7 (days 1-7 post-infection)): 69.6% | D. immitis L4 Efficacy (median % reduction Wolbachia) ([4]; 5000 nM): 65.9% | D. immitis mf Efficacy (median % reduction Wolbachia) ([3]; 50 nM): 10.0% | D. immitis mf Efficacy (median % reduction Wolbachia) ([3]; 5000 nM): 58.8%
